Paper PMC4416786, “Validation of a P-Glycoprotein (P-gp) Humanized Mouse Model by Integrating Selective Absolute Quantification of Human MDR1, Mouse Mdr1a and Mdr1b Protein Expressions with In Vivo Functional Analysis for Blood-Brain Barrier Transport” (PLoS ONE, 2015)
Read-outs that look alike come from different tables or passages of the source.

How the values were obtained:
P-gp [1] = conditions: rats; cited from earlier work
in vitro = test: in vitro
Method: Equilibrium dialysis was performed to measure the plasma unbound fraction of the drugs studied, and to measure possible differences in the plasma protein binding between hMDR1 and C57BL/6 WT mice. A high throughput, 96 well equilibrium dialysis apparatus (Model HTD96b, HTDialysis, Connecticut, USA) with dialysis membrane strips with a molecular weight cut-off of 12–14 kDa was used. The concentrations of the substances were the same as those achieved in plasma during the in vivo experiments. One side of each well used was loaded with 125 μl of plasma spiked with drug and the other side was loaded with 125 μl phosphate buffer saline (PBS). The top surface of the Teflon block was then sealed with an adhesive film. […] Triplicates of the same concentration for each compound were measured. After the incubation period 80 μl from the buffer side was added into 80 μl of blank mouse plasma and 80 μl from the plasma was added into 80 μl of PBS. Samples were stored at -20 until analysis.

human P-gp (hMDR1) [2] = conditions: digoxin 1 mg/kg s.c.; blocker one hour before digoxin
Text: (§1) The total brain concentration (ng/g brain tissue) of the substance was divided with the total plasma concentration (ng/ml) of the substance to obtain the tissue partition ratio (Kp), which was compared between the groups of mice. […] The the fraction unbound in plasma (fu, p) measured with equilibrium dialysis was used in the calculations.

P-gp [3] = system: P-gp; set-up: method as in PMID 19047468; conditions: PET imaging; cited from earlier work
human P-gp (hMDR1) [4] = conditions: mouse, in vivo
P-gp [5] = target: T1, P-gp (Mus musculus, UniProt P21447); conditions: in vivo
T1 sequence (P21447 whole entry): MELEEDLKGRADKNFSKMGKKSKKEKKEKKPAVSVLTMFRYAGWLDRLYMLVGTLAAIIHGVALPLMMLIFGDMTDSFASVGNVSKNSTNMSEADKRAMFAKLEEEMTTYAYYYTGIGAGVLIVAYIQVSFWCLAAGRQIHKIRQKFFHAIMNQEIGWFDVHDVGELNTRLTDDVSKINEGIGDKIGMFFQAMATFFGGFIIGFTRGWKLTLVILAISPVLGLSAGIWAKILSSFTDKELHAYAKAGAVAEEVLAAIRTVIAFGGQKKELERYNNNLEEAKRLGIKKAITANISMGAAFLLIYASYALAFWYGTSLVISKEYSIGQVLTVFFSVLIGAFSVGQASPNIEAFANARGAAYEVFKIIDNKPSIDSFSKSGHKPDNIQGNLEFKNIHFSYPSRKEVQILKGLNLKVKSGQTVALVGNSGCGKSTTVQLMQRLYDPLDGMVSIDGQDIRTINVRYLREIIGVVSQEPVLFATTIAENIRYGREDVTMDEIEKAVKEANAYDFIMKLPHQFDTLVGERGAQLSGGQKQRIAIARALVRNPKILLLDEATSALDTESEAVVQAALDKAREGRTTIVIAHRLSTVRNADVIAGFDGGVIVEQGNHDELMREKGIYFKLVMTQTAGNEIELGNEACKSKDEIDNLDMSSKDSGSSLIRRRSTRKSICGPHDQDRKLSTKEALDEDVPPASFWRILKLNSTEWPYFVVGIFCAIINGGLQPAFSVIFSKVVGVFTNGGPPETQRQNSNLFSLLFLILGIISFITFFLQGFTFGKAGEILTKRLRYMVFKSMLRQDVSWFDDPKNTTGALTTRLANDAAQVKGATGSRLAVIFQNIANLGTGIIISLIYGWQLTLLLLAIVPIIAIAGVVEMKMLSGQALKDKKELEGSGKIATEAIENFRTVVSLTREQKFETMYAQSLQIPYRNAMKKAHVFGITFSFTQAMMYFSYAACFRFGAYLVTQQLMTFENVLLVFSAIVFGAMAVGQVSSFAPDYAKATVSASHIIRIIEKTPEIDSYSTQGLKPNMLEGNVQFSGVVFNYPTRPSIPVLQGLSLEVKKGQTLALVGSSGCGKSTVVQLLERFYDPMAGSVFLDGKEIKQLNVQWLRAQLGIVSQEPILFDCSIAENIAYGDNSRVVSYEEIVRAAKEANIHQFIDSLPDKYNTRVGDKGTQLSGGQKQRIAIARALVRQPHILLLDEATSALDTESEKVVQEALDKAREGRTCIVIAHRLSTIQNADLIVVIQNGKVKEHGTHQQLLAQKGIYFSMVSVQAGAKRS
Method: Brain to plasma total concentration ratios (Kp) of the substances were measured for each animal. Unbound volume of distribution in brain (Vu, brain) was measured with the brain slice method [14] and fraction unbound in plasma (fu, p) was measured with high throughput equilibrium dialysis.
All the substances were administered subcutaneously except docetaxel, which was given intravenously in the tail vein as a slow injection over five minutes due to its tissue irritating character. […] The volume administered of all substances was 0.01 ml/g_body weight.
Blood was collected with a pre-heparinized syringe by cardiac puncture and was centrifuged for 5 minutes at 10000 rpm to obtain plasma. Brain was also sampled. The brain was divided in two equal parts and frozen on dry ice before weighed. All the samples were stored at -80°C until analysis.
as §1

[6] = C57BL/6, mouse, 5 h, 200 nM
mouse P-gp = mouse P-gp (Mus musculus, UniProt P21447); test: in vivo; conditions: C57BL/6, mouse
Chain of mouse P-gp (P21447 whole entry): as above

human P-gp (hMDR1) [7] = test: in vivo; conditions: hMDR1 (MDR1 humanized), mouse
P-gp [8] = target: T1, P-gp; set-up: hMDR1 and C57BL/6 WT mice; from tissue; host or cells: blood-brain barrier (brain capillaries) of living male C57BL/6 WT mice; method as in PMID 7910522; conditions: cited from earlier work
P-gp [9] = target: T1, P-gp; conditions: C57BL/6 WT mice, oxycodone 1 mg/kg s.c., cyclosporine A 100 mg/kg i.p., verapamil 3 mg/kg s.c. or elacridar 6 mg/kg s.c. one hour before
Text: Brain and liver were sampled after sacrificing the animal.
as §1

P-gp [10] = system: P-gp; set-up: method as in PMID 16850390; conditions: cited from earlier work
[11] = hMDR1 (MDR1 humanized), mouse, plasma

SMILES: C/C=C/C[C@@H](C)C(=O)[C@H]1C(=O)N[C@@H](C(C)C)C(=O)N(C)CC(=O)N(C)[C@@H](CC(C)C)C(=O)N[C@@H](C(C)C)C(=O)N(C)[C@@H](CC(C)C)C(=O)N[C@@H](C)C(=O)N[C@H](C)C(=O)N(C)[C@@H](CC(C)C)C(=O)N(C)[C@@H](CC(C)C)C(=O)N(C)[C@@H](C(C)C)C(=O)N1C [PSC833]
- Effect of the P-gp blocker on the tail-flick latency of oxycodone (P-gp [1]): no effect

SMILES: C[C@H]1O[C@@H](O[C@H]2[C@@H](O)C[C@H](O[C@H]3[C@@H](O)C[C@H](O[C@H]4CC[C@@]5(C)[C@H](CC[C@@H]6[C@@H]5C[C@@H](O)[C@]5(C)[C@@H](C7=CC(=O)OC7)CC[C@]65O)C4)O[C@@H]3C)O[C@@H]2C)C[C@H](O)[C@@H]1O [Digoxin]
- fraction unbound (in vitro; C57BL/6, mouse, plasma): 0.594
- fraction unbound (in vitro; [11]): 0.607

SMILES: C=C[C@H]1C[N@@]2CC[C@H]1C[C@@H]2[C@@H](O)c1ccnc2ccc(OC)cc12 [Quinidine, Quinidine gluconate]
- Digoxin Kp in hMDR1 mice compared to C57BL/6 WT controls when treated with the blocker (human P-gp (hMDR1) [2]): significantly higher

SMILES: O=C(c1ccc([18F])cc1)C1CCN(CCn2c(=S)[nH]c3ccccc3c2=O)CC1 [[18F]altanserine]
- Brain penetration in humans relative to rodents (P-gp [3]): 4.5 times

SMILES: CC(=O)O[C@@]12CO[C@@H]1C[C@H](O)[C@@]1(C)C(=O)[C@H](O)C3=C(C)[C@@H](OC(=O)[C@H](O)[C@@H](NC(=O)OC(C)(C)C)c4ccccc4)C[C@@](O)([C@@H](OC(=O)c4ccccc4)[C@H]21)C3(C)C [Docetaxel]
- fraction unbound (in vitro; C57BL/6, mouse, plasma): 0.053
- fraction unbound (in vitro; [11]): 0.052
- Kp in hMDR1 mice relative to C57BL/6 WT mice (human P-gp (hMDR1) [4]): 2 times
- Kp in Mdr1a/1b(-/-) mice relative to FVB WT controls (P-gp [5]): 4 times
- Vu, brain [6]: 789 ml/g_brain
- Vu, brain (nonspecific binding to brain parenchymal tissue) [6]: 789 ml*g_brain^-1
- Kp uu at 1 h (mouse P-gp): 0.002
- Kp uu at 1 h (human P-gp (hMDR1) [7]): 0.003

SMILES: COc1ccc2c3c1O[C@H]1C(=O)CC[C@@]4(O)[C@@H](C2)N(C)CC[C@]314 [Oxycodone]
- fraction unbound (in vitro; C57BL/6, mouse): 0.681
- fraction unbound (in vitro; hMDR1 (MDR1 humanized), mouse): 0.681

SMILES: CC[C@]1(O)C[C@@H]2CN(CCc3c([nH]c4ccccc34)[C@@](C(=O)OC)(c3cc4c(cc3OC)N(C)[C@H]3[C@@](O)(C(=O)OC)[C@H](OC(C)=O)[C@]5(CC)C=CCN6CC[C@]43[C@@H]65)C2)C1 [vinblastine]
- Sensitivity of Mdr1a(-/-) mice compared to wild type controls (P-gp [8]): 3 fold

SMILES: COc1cc2c(cc1OC)CN(CCc1ccc(NC(=O)c3cccc4c(=O)c5cccc(OC)c5[nH]c34)cc1)CC2 [Elacridar]
- Digoxin Kp in hMDR1 mice compared to C57BL/6 WT controls when treated with the blocker (human P-gp (hMDR1) [2]): significantly higher
- Effect of the P-gp blocker on oxycodone Kp (P-gp [9]): not changed
- Effect of the P-gp blocker on oxycodone Kp (P-gp [9]; listed as elacridar (GF120918)): no effect
- Blood concentration needed in guinea pigs to obtain the same inhibition as in rats and mice (P-gp [10]): higher blood concentration
